Publication PMC2818879 (Journal of medicinal chemistry, 2010)

What was measured:
[1] = test system: reserpine-induced hypolocomotion in rats; assay: Reversal of reserpine-induced hypolocomotion in rats; settings: 10 µMol/kg s.c.; for Effect compared to reserpine control (ANOVA, Dunnett's analysis): horizontal activity, six rats
6-OHDA lesioned rats = assay: Rotational experiment with 6-OH-DA unilaterally lesioned rats; assay type: in vivo, rat
cloned human D2 receptor = cloned human D2 receptor (Homo sapiens, UniProt P14416); assay: Stimulation of [35S]GTPγS binding, D2 receptor expressed in CHO cells; settings: read-out: CHO-D2 %Emax
Chain of cloned human D2 receptor (P14416 whole entry): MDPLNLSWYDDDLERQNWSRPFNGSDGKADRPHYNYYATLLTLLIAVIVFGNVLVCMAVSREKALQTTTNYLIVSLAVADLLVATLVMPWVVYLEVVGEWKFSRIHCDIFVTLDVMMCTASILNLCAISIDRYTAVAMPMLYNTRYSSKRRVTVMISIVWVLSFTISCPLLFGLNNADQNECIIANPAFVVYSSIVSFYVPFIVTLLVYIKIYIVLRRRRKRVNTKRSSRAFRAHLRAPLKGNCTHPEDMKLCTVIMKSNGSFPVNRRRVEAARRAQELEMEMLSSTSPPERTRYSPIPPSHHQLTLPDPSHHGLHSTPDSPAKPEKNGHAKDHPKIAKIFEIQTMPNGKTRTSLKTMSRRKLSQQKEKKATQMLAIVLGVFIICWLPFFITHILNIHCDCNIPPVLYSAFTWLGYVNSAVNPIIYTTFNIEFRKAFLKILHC

cloned rat D3 receptor = cloned rat D3 receptor (Rattus norvegicus, UniProt P19020); assay: Inhibition of [3H]spiperone binding to D3 receptors expressed in HEK-293 cells; settings: ratio of Ki values

CCCN(CCN1CCN(c2ccnc3ccccc23)CC1)[C@H]1CCc2nc(N)sc2C1 [(−)-24a, (S)-N^6-Propyl-N^6-(2-(4-(quinolin-4-yl)piperazin-1-yl)ethyl)-4,5,6,7-tetrahydrobenzo[d]thiazole-2,6-diamine]
Effect compared to reserpine control (ANOVA, Dunnett's analysis) [1]: not statistically significant
Reversal of reserpine-induced hypolocomotion ([1]; reserpine 5 mg/kg s.c. 18 h before, locomotion monitored 6 h): much less active compared to 24b and 24c

CCCN(CCN1CCN(c2nccc3ccccc23)CC1)[C@H]1CCc2nc(N)sc2C1 [(−)-24c, (S)-N^6-(2-(4-(Isoquinolin-1-yl)piperazin-1-yl)ethyl)-N^6-propyl-4,5,6,7-tetrahydrobenzo[d]-thiazole-2,6-diamine]
Total rotations (contralateral) (6-OHDA lesioned rats; 5 µMol/kg s.c.): 2805
Time of peak effect (rotations) (6-OHDA lesioned rats; 10 µMol/kg s.c.): about 7 h
Total rotations (contralateral) (6-OHDA lesioned rats; 10 µMol/kg s.c.): 3688
Emax (cloned human D2 receptor): 88.4 ± 3.9%
Effect compared to reserpine control (ANOVA, Dunnett's analysis) [1]: significantly different

CCCN(CCN1CCN(c2ccc(-c3ccccc3)cc2)CC1)[C@H]1CCc2nc(N)sc2C1 [Compound 2]
Emax (cloned human D2 receptor): 119 ± 6%

CCCN(CCN1CCN(c2cccc3ncccc23)CC1)[C@H]1CCc2nc(N)sc2C1 [(−)-24b, (S)-N^6-Propyl-N^6-(2-(4-(quinolin-5-yl)piperazin-1-yl)ethyl)-4,5,6,7-tetrahydrobenzo[d]thiazole-2,6-diamine]
Time of peak effect (rotations) (6-OHDA lesioned rats; 5 µMol/kg s.c.): around 5 h
Total rotations (contralateral) (6-OHDA lesioned rats; 5 µMol/kg s.c.): 2295
Time of peak effect (rotations) (6-OHDA lesioned rats; 10 µMol/kg s.c.): around 7.5 h
Total rotations (contralateral) (6-OHDA lesioned rats; 10 µMol/kg s.c.): 2648
Effect compared to reserpine control (ANOVA, Dunnett's analysis) [1]: significantly different

CCCN(CCC)CCc1cccc2c1CC(=O)N2 [Ropinirole, reference compound]
Emax (cloned human D2 receptor): 83.9 ± 0.3%
Effect compared to reserpine control (ANOVA, Dunnett's analysis) [1]: significantly different
